From patent US6800648B2, “Antipsychotic aminomethyl derivatives of 7,8-dihydro-3H-1,6,9-trioxa-3-AZA-cyclopenta[a]naphthalen-2-one” (Wyeth, priority 2001, dated 2004)
Where a name gives a salt, the structure may show the parent alone.

Columns and labels:
dopamine D2 receptor = molecular target: T1, dopamine D2 receptor (Rattus norvegicus, UniProt P61169); test: Dopamine D2 receptor affinity, 3H-quinpirole binding in homogenized rat striatal brain tissue
T1 construct: from tissue; host or cells: rat striatal brain tissue homogenate
Procedure: Affinity for the dopamine D2 receptor was established by a modification of the standard experimental test procedure of Seemen and Schaus, European Journal of Pharmacology 203: 105-109, 1991, wherein homogenized rat striatal brain tissue is incubated with ^3H-quinpirole and various concentrations of test compound, filtered and washed and counted in a Betaplate scintillation counter.

mouse locomotor activity = test: Reduction of mouse locomotor activity (functional antagonism of dopamine receptors in vivo); settings: mice (male, CF-1), sc, horizontal activity counts 10 to 20 minutes after dosing
Procedure: The antipsychotic activity of the compounds of the invention was established by a determination of functional antagonism of dopamine receptors in vivo, specifically the compounds' ability to reduce mouse locomotor activity according to the method of Martin and Bendensky, J. Pharmacol. Exp. Therap. 229: 706-711, 1984, in which mice (male, CF-1, Charles River, 20-30 g) were injected with vehicle or various doses of each drug and locomotor activity was measured for 30 minutes using automated infrared activity monitors (Omnitech—8×8 inch open field) located in a darkened room. ED50's were calculated from the horizontal activity counts collected from 10 to 20 minutes after dosing using a nonlinear regression analysis with inverse prediction.

T1 sequence (P61169 whole entry): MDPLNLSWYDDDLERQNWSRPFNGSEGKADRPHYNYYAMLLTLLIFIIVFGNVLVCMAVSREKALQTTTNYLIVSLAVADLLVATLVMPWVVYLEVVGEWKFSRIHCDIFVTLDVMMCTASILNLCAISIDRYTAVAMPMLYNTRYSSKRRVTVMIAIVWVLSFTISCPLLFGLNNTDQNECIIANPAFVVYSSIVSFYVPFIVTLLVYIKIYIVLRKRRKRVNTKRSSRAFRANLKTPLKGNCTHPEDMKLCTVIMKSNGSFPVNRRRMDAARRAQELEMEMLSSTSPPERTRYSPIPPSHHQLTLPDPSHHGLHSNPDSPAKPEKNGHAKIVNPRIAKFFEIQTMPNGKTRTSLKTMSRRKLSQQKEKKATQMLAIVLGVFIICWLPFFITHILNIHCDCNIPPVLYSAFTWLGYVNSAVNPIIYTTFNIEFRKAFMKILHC

Row | SMILES | IC50 (dopamine D2 receptor) [nM] | melting point [°C] | ED50 (mouse locomotor activity) [mg/kg]
1 | NCC1COc2ccc3[nH]c(=O)oc3c2O1 (stereo not shown) [Example 1, 8-Aminomethyl-7,8-dihydro-3H-1,6,9-trioxa-3-aza-cyclopenta[a]naphthalen-2-one] | 3.7 |  | 
2 | O=c1[nH]c2ccc3c(c2o1)OC(CNCCCCc1ccccc1)CO3 (stereo not shown) (as salt: fumarate) (hydrate or solvate) [Example 4, 8-[(4-Phenyl-butylamino)-methyl]-7,8-dihydro-3H-1,6,9-trioxa-3-aza-cyclopenta[a]naphthalen-2-one] |  | 215 to 218 | 
3 | NCC1COc2ccc3[nH]c(=O)oc3c2O1 (stereo not shown) (as salt: HCl) [Example 1, 8-Aminomethyl-7,8-dihydro-3H-1,6,9-trioxa-3-aza-cyclopenta[a]naphthalen-2-one] |  | > 250 | 
4 | O=c1[nH]c2ccc3c(c2o1)OC(CNCc1ccccc1)CO3 (stereo not shown) [Example 2, 8-(Benzylamino-methyl)-7,8-dihydro-3H-1,6,9-trioxa-3-aza-cyclopenta[a]naphthalen-2-one] | 0.16 |  | 
5 | O=c1[nH]c2ccc3c(c2o1)OC(CN1CC=C(c2c[nH]c4ccccc24)CC1)CO3 (stereo not shown) |  | 202 | 
6 | O=c1[nH]c2ccc3c(c2o1)OC(CNCc1ccccc1)CO3 (stereo not shown) (as salt: fumarate) (hydrate or solvate) [Example 2, 8-(Benzylamino-methyl)-7,8-dihydro-3H-1,6,9-trioxa-3-aza-cyclopenta[a]naphthalen-2-one] |  | 220 | 
7 | O=c1[nH]c2ccc3c(c2o1)OC(CNCCCCc1ccccc1)CO3 (stereo not shown) [Example 4, 8-[(4-Phenyl-butylamino)-methyl]-7,8-dihydro-3H-1,6,9-trioxa-3-aza-cyclopenta[a]naphthalen-2-one] | 2 |  | 
8 | O=c1[nH]c2ccc3c(c2o1)OC(CN(Cc1ccccc1)Cc1ccccc1)CO3 (stereo not shown) [Example 3, 8-[(Dibenzylamino)-methyl]-7,8-dihydro-3H-1,6,9-trioxa-3-aza-cyclopenta[a]naphthalen-2-one] | 475 | 210 | ≥ 50
